Like-named read-outs stand apart in the source and are kept apart here.
How the values were obtained:
[1] = test system: lepidopteran larvae: cabbage loopers (Trichoplusia ni) and beet armyworms (Spodoptera exigua); format: in vivo; conditions: leaf discs
Summary of the method: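 Romaine lettuce leaf discs (⅝ inch) dipped about one second in treatment solution and infested with four cabbage loopers and four beet armyworms (3rd-4th instar) per container. Held dark at 15 °C, 80% RH; percent disc-area damage scored visually in 5% increments at 24, 48 and 72 h.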

[2] = test system: lepidopteran larvae: cabbage loopers (Trichoplusia ni) and beet armyworms (Spodoptera exigua); format: in vivo; conditions: plants
Summary of the method: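 Romaine lettuce plants 2-3 inches tall were sprayed with 10 mL of insecticide (ppm) with buffer, amine oxide or buffered amine oxide at 200:1, then infested with 15 T. ni and 15 S. exigua larvae (5th-6th instar) per container. Leaf surface damage scored visually in 5% increments after 24 h.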

[3] = insecticide + CO3 buffer 200:1, no amine oxide, PPM: Chlorantranilopril 60, Acephate 70, Methoxyfenozide 100, Spinosad 30, Permethrin 10, Indoxacarb 50
[4] = insecticide + PO4 buffer 200:1, no amine oxide, PPM: Chlorantranilopril 60, Acephate 70, Methoxyfenozide 100, Spinosad 30, Permethrin 10, Indoxacarb 50
[5] = insecticide + amine oxide 12, no buffer, 200:1, PPM: Chlorantranilopril 60, Acephate 70, Methoxyfenozide 100, Spinosad 30, Permethrin 10, Indoxacarb 50
[6] = insecticide + amine oxide 1218, no buffer, 200:1, PPM: Chlorantranilopril 60, Acephate 70, Methoxyfenozide 100, Spinosad 30, Permethrin 10, Indoxacarb 50
[7] = insecticide + buffered amine oxide system CO3, 12, 200:1, PPM: Chlorantranilopril 60, Acephate 70, Methoxyfenozide 100, Spinosad 30, Permethrin 10, Indoxacarb 50
[8] = insecticide + buffered amine oxide system CO3, 1218, 200:1, PPM: Chlorantranilopril 60, Acephate 70, Methoxyfenozide 100, Spinosad 30, Permethrin 10, Indoxacarb 50
[9] = insecticide + buffered amine oxide system PO4, 12, 200:1, PPM: Chlorantranilopril 60, Acephate 70, Methoxyfenozide 100, Spinosad 30, Permethrin 10, Indoxacarb 50
[10] = insecticide + buffered amine oxide system PO4, 1218, 200:1, PPM: Chlorantranilopril 60, Acephate 70, Methoxyfenozide 100, Spinosad 30, Permethrin 10, Indoxacarb 50
[11] = insecticide alone, highest, PPM: Chlorantranilopril 120, Acephate 140, Methoxyfenozide 200, Spinosad 60, Permethrin 20, Indoxacarb 100
[12] = insecticide alone, increased, PPM: Chlorantranilopril 90, Acephate 105, Methoxyfenozide 150, Spinosad 45, Permethrin 15, Indoxacarb 75
[13] = insecticide alone, PPM: Chlorantranilopril 60, Acephate 70, Methoxyfenozide 100, Spinosad 30, Permethrin 10, Indoxacarb 50

For `COP(=O)(NC(C)=O)SC` (stereo not shown) [Acephate], the “Percent Lepidopteran Damage to Romaine Lettuce 24 hr” value [1, 3] was 50.0%, the “Percent Lepidopteran Damage to Romaine Lettuce 24 hr” value [1, 4] was 38.5% and the “Percent Lepidopteran Damage to Romaine Lettuce 24 hr” value [1, 5] was 27.0%. For the same compound, the “Percent Lepidopteran Damage to Romaine Lettuce 24 hr” value [1, 6] was 22.0%, the “Percent Lepidopteran Damage to Romaine Lettuce 24 hr” value [1, 7] was 34.0% and the “Percent Lepidopteran Damage to Romaine Lettuce 24 hr” value [1, 8] was 29.5%. For the same compound, the “Percent Lepidopteran Damage to Romaine Lettuce 24 hr” value [1, 9] was 43.5%, the “Percent Lepidopteran Damage to Romaine Lettuce 24 hr” value [1, 10] was 18.0% and the “Percent Lepidopteran Damage to Romaine Lettuce 24 hr” value [1, 11] was 29.0%. The “Percent Lepidopteran Damage to Romaine Lettuce 24 hr” value [1, 12] was 27.0%, the “Percent Lepidopteran Damage to Romaine Lettuce 24 hr” value [1, 13] was 27.5% and the “Percent Lepidopteran Damage to Romaine Lettuce 48 hr” value [1, 3] was 57.5%. For the same compound, the “Percent Lepidopteran Damage to Romaine Lettuce 48 hr” value [1, 4] was 53.0%, the “Percent Lepidopteran Damage to Romaine Lettuce 48 hr” value [1, 5] was 49.5% and the “Percent Lepidopteran Damage to Romaine Lettuce 48 hr” value [1, 6] was 52.5%. For the same compound, the “Percent Lepidopteran Damage to Romaine Lettuce 48 hr” value [1, 7] was 63.5%, the “Percent Lepidopteran Damage to Romaine Lettuce 48 hr” value [1, 8] was 50.5% and the “Percent Lepidopteran Damage to Romaine Lettuce 48 hr” value [1, 9] was 55.5%. For the same compound, the “Percent Lepidopteran Damage to Romaine Lettuce 48 hr” value [1, 10] was 32.5%, the “Percent Lepidopteran Damage to Romaine Lettuce 48 hr” value [1, 11] was 35.5% and the “Percent Lepidopteran Damage to Romaine Lettuce 48 hr” value [1, 12] was 44.5%. For the same compound, the “Percent Lepidopteran Damage to Romaine Lettuce 48 hr” value [1, 13] was 47.5%, the “Percent Lepidopteran Damage to Romaine Lettuce 72 hr” value [1, 3] was 61.0% and the “Percent Lepidopteran Damage to Romaine Lettuce 72 hr” value [1, 4] was 68.5%. For the same compound, the “Percent Lepidopteran Damage to Romaine Lettuce 72 hr” value [1, 5] was 59.5%, the “Percent Lepidopteran Damage to Romaine Lettuce 72 hr” value [1, 6] was 67.0% and the “Percent Lepidopteran Damage to Romaine Lettuce 72 hr” value [1, 7] was 66.0%. The “Percent Lepidopteran Damage to Romaine Lettuce 72 hr” value [1, 8] was 63.5%, the “Percent Lepidopteran Damage to Romaine Lettuce 72 hr” value [1, 9] was 72.0% and the “Percent Lepidopteran Damage to Romaine Lettuce 72 hr” value [1, 10] was 51.0%. The “Percent Lepidopteran Damage to Romaine Lettuce 72 hr” value [1, 11] was 42.0%, the “Percent Lepidopteran Damage to Romaine Lettuce 72 hr” value [1, 12] was 47.0% and the “Percent Lepidopteran Damage to Romaine Lettuce 72 hr” value [1, 13] was 79.5%. For the same compound, the “Percent Lepidopteran Damage to Romaine Lettuce 24 hr” value [2, 3] was 31.0%, the “Percent Lepidopteran Damage to Romaine Lettuce 24 hr” value [2, 4] was 20.0% and the “Percent Lepidopteran Damage to Romaine Lettuce 24 hr” value [2, 5] was 36.0%. For the same compound, the “Percent Lepidopteran Damage to Romaine Lettuce 24 hr” value [2, 6] was 28.0%, the “Percent Lepidopteran Damage to Romaine Lettuce 24 hr” value [2, 7] was 11.5% and the “Percent Lepidopteran Damage to Romaine Lettuce 24 hr” value [2, 8] was 4.5%. The “Percent Lepidopteran Damage to Romaine Lettuce 24 hr” value [2, 9] was 7.5%, the “Percent Lepidopteran Damage to Romaine Lettuce 24 hr” value [2, 10] was 1.0% and the “Percent Lepidopteran Damage to Romaine Lettuce 24 hr” value [2, 11] was 13.0%. The “Percent Lepidopteran Damage to Romaine Lettuce 24 hr” value [2, 12] was 16.5% and the “Percent Lepidopteran Damage to Romaine Lettuce 24 hr” value [2, 13] was 22.7%.

With Spinosad the “Percent Lepidopteran Damage to Romaine Lettuce 24 hr” value [1, 3] was 25.5%, the “Percent Lepidopteran Damage to Romaine Lettuce 24 hr” value [1, 4] was 20.0% and the “Percent Lepidopteran Damage to Romaine Lettuce 24 hr” value [1, 5] was 30.5%. The “Percent Lepidopteran Damage to Romaine Lettuce 24 hr” value [1, 6] was 15.0%, the “Percent Lepidopteran Damage to Romaine Lettuce 24 hr” value [1, 7] was 14.0% and the “Percent Lepidopteran Damage to Romaine Lettuce 24 hr” value [1, 8] was 10.5%. For the same compound, the “Percent Lepidopteran Damage to Romaine Lettuce 24 hr” value [1, 9] was 6.5%, the “Percent Lepidopteran Damage to Romaine Lettuce 24 hr” value [1, 10] was 13.0% and the “Percent Lepidopteran Damage to Romaine Lettuce 24 hr” value [1, 11] was 24.5%. For the same compound, the “Percent Lepidopteran Damage to Romaine Lettuce 24 hr” value [1, 12] was 12.0%, the “Percent Lepidopteran Damage to Romaine Lettuce 24 hr” value [1, 13] was 19.0% and the “Percent Lepidopteran Damage to Romaine Lettuce 48 hr” value [1, 3] was 28.0%. For the same compound, the “Percent Lepidopteran Damage to Romaine Lettuce 48 hr” value [1, 4] was 28.5%, the “Percent Lepidopteran Damage to Romaine Lettuce 48 hr” value [1, 5] was 35.5% and the “Percent Lepidopteran Damage to Romaine Lettuce 48 hr” value [1, 6] was 21.0%. For the same compound, the “Percent Lepidopteran Damage to Romaine Lettuce 48 hr” value [1, 7] was 38.0%, the “Percent Lepidopteran Damage to Romaine Lettuce 48 hr” value [1, 8] was 29.5% and the “Percent Lepidopteran Damage to Romaine Lettuce 48 hr” value [1, 9] was 18.5%. For the same compound, the “Percent Lepidopteran Damage to Romaine Lettuce 48 hr” value [1, 10] was 22.0%, the “Percent Lepidopteran Damage to Romaine Lettuce 48 hr” value [1, 11] was 34.5% and the “Percent Lepidopteran Damage to Romaine Lettuce 48 hr” value [1, 12] was 23.5%. The “Percent Lepidopteran Damage to Romaine Lettuce 48 hr” value [1, 13] was 26.5%, the “Percent Lepidopteran Damage to Romaine Lettuce 72 hr” value [1, 3] was 29.0% and the “Percent Lepidopteran Damage to Romaine Lettuce 72 hr” value [1, 4] was 33.0%. For the same compound, the “Percent Lepidopteran Damage to Romaine Lettuce 72 hr” value [1, 5] was 36.0%, the “Percent Lepidopteran Damage to Romaine Lettuce 72 hr” value [1, 6] was 28.0% and the “Percent Lepidopteran Damage to Romaine Lettuce 72 hr” value [1, 7] was 49.5%. For the same compound, the “Percent Lepidopteran Damage to Romaine Lettuce 72 hr” value [1, 8] was 35.5%, the “Percent Lepidopteran Damage to Romaine Lettuce 72 hr” value [1, 9] was 24.0% and the “Percent Lepidopteran Damage to Romaine Lettuce 72 hr” value [1, 10] was 29.5%. The “Percent Lepidopteran Damage to Romaine Lettuce 72 hr” value [1, 11] was 36.5%, the “Percent Lepidopteran Damage to Romaine Lettuce 72 hr” value [1, 12] was 36.0% and the “Percent Lepidopteran Damage to Romaine Lettuce 72 hr” value [1, 13] was 59.0%. For the same compound, the “Percent Lepidopteran Damage to Romaine Lettuce 24 hr” value [2, 3] was 17.0%, the “Percent Lepidopteran Damage to Romaine Lettuce 24 hr” value [2, 4] was 20.5% and the “Percent Lepidopteran Damage to Romaine Lettuce 24 hr” value [2, 5] was 24.5%. The “Percent Lepidopteran Damage to Romaine Lettuce 24 hr” value [2, 6] was 22.5%, the “Percent Lepidopteran Damage to Romaine Lettuce 24 hr” value [2, 7] was 12.5% and the “Percent Lepidopteran Damage to Romaine Lettuce 24 hr” value [2, 8] was 9.5%. The “Percent Lepidopteran Damage to Romaine Lettuce 24 hr” value [2, 9] was 10.0%, the “Percent Lepidopteran Damage to Romaine Lettuce 24 hr” value [2, 10] was 6.5% and the “Percent Lepidopteran Damage to Romaine Lettuce 24 hr” value [2, 11] was 19.0%. The “Percent Lepidopteran Damage to Romaine Lettuce 24 hr” value [2, 12] was 17.0% and the “Percent Lepidopteran Damage to Romaine Lettuce 24 hr” value [2, 13] was 28.5%.
